These are literature values, as cited in patent US20260174720A1, “NERVONIC ACID COMPOSITION FOR IMPROVING MEMORY-BASED LEARNING FUNCTION AND A PREPARATION METHOD THEREOF” (Guangzhou Decade Nutrition Technology Co., Ltd., priority 2024, published 2026).

SMILES strings stand for the structures.

Consider `CCCCCCCC/C=C\CCCCCCCCCCCCCC(=O)O` [Nervonic acid, cis-15-Tetracosenic Acid], for which the “solubility in alcohols such as methanol, ethanol” value is listed as “soluble in alcohols”. Besides, under “room temperature”, the solubility in water entry was “insoluble in water”.
